Data taken from the supplement of paper PMC10307832.

Experiments:
Decitabine = compound: Nc1ncn([C@H]2C[C@H](O)[C@@H](CO)O2)c(=O)n1 [Decitabine]; test: relative viability (nuclei count vs DMSO), 5 days (fraction); higher = more cells survive
How it was run: (§1)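 Vehicle-anchored 1536-well plates of lung cancer cell lines, held overnight at 37 °C, were pinned with five library-drug doses (not always all listed) spaced by √10. No medium change followed over the next 5 days, after which the cells were fixed, permeabilised and Hoechst-stained together and imaged at 4×. Nuclei were counted with MetaXpress, and viability is treated-well nuclei over vehicle-well nuclei, taken as a median across plates. Plates passed with control CV below 25% and at least one doubling.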

Halofuginone = compound: O=C(C[C@H]1NCCC[C@@H]1O)Cn1cnc2cc(Br)c(Cl)cc2c1=O (racemic) [Halofuginone]; test: as above
How it was run: as §1

Cell Line | relative viability (Decitabine; 0.04 µM) | relative viability (Decitabine; 0.1265 µM) | relative viability (Decitabine; 0.4 µM) | relative viability (Decitabine; 1.265 µM) | relative viability (Decitabine; 2 µM, anchor plate) | relative viability (Decitabine; 4 µM) | relative viability (Halofuginone; 0.001 µM) | relative viability (Halofuginone; 0.003162 µM) | relative viability (Halofuginone; 0.01 µM) | relative viability (Halofuginone; 0.03162 µM) | relative viability (Halofuginone; 0.1 µM)
201T | 0.981 | 1.02 | 1.04 | 0.612 | 0.855 | 0.953 | 0.97 | 0.967 | 0.952 | 0.933 | 0.803
CAL-12T | 0.726 | 0.843 | 0.502 | 0.548 | – | 0.461 | 1.03 | 1.02 | 1.03 | 1.12 | 0.85
HCC-44 | 0.924 | 0.985 | 0.348 | 0.545 | 0.938 | 0.639 | 0.988 | 0.98 | 0.972 | 0.953 | 0.8
NCI-H358 | 0.65 | 0.456 | 0.407 | 0.285 | 0.229 | 0.224 | 0.994 | 0.892 | 0.705 | 0.341 | 0.142
SW 900 | 0.465 | 0.477 | 0.298 | 0.25 | 0.433 | 0.265 | 0.911 | 0.888 | 0.664 | 1.02 | 0.569
NCI-H2087 | 0.574 | 0.567 | 0.561 | 0.296 | 0.294 | 0.367 | 1.09 | 1.21 | 0.975 | 0.886 | 0.836
COR-L 105 | 0.666 | 0.798 | 0.711 | 0.648 | 0.696 | 0.577 | 1.07 | 0.955 | 0.874 | 0.824 | 0.711
LCLC-97TM1 | 0.425 | 0.538 | 0.209 | 0.134 | 0.238 | 0.15 | 0.913 | 0.938 | 1.01 | 0.995 | 0.679
NCI-H520 | 0.847 | 0.811 | 0.508 | 0.472 | 0.517 | 0.374 | 1.01 | 1.07 | 1.04 | 0.91 | 0.635
NCI-H1993 | 0.863 | 0.844 | 0.929 | 0.755 | 0.596 | 0.757 | 1.23 | 0.978 | 0.893 | 1.11 | 0.749
NCI-H1437 | 0.744 | 0.73 | 0.542 | 0.424 | 0.557 | 0.425 | 0.976 | 1.02 | 1.01 | 0.984 | 0.845
LC-2-ad | 0.832 | 0.839 | 0.679 | 0.411 | 0.786 | 0.501 | 1.11 | 0.944 | 0.932 | 0.978 | 0.833
